Measurements reported in patent publication US20100249243A1, “NOVEL BETA-HYDROXYKETONES AND BETA-ALKOXYKETONES WITH ESTROGENIC ACTIVITY” (priority 2007, published 2010).
Where two headings read alike, the source gives them in different places.

Assays:
ERα [1] = molecular target: T1, ERα (Homo sapiens, UniProt P03372); test: ERα luciferase reporter (pERE2TATA-LUC) transactivation assay in transfected HEK293 cells; type: cell-based; design: expressed in transfected cells; host or cells: HEK293; settings: 24 hours; for ERα receptor activation relative to 10 nM E2 corresponding 100: Table 1, sample concentration 10 μM, mean of at least three independent transfections, SEM typically <15%; for ERα in vitro activity (receptor activation relative to 10 nM E2): Table 2, previously published compounds, test compound 10 μM
T1 sequence (P03372 1-595): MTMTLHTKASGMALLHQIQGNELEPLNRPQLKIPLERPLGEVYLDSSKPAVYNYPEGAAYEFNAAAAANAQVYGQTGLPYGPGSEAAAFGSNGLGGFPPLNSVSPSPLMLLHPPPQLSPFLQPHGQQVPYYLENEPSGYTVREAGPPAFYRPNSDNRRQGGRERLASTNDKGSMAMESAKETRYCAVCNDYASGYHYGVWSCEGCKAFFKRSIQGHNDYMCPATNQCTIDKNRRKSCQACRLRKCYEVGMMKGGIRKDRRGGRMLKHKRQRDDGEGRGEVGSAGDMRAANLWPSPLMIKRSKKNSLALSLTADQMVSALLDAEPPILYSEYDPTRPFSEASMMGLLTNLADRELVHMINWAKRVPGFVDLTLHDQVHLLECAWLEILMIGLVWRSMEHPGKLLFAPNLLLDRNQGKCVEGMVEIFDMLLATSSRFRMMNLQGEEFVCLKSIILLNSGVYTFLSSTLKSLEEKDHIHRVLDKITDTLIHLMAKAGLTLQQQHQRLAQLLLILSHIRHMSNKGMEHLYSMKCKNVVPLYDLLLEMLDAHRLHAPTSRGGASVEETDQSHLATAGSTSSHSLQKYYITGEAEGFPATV
Description: (§1) All other reagents were of reagent grade from Sigma or Fluka. One day before transfection, HEK293 cells were seeded in 48-well plates (70×10^3 cells per well) in phenol-free Dulbecco's modified Eagle medium supplemented with 5% delipidated fetal bovine serum (Sigma) and antibiotics. After a medium change, the cells were transfected for 4 hours with 5 ng ERα or ERβ expression vector, 75 ng reporter plasmid pERE2TATA-LUC and 20 ng control plasmid pCMVβ by the calcium phosphate method. After transfection, the cells received fresh medium containing either vehicle (0.1% v/v) or test compound (10 μM). After 24 hours, the cells were washed, lysed and luciferase and β-galactosidase activities were determined from 20 μl of lysates with the Victor^2TM reader (PerkinElmer Wallac, Turku, Finland). […] The data are means±SEM of at least three independent transfections.

ERβ [2] = molecular target: T2, ERβ (Homo sapiens, UniProt Q92731); test: ERβ luciferase reporter (pERE2TATA-LUC) transactivation assay in transfected HEK293 cells; type: cell-based; design: expressed in transfected cells; host or cells: HEK293; settings: for Emax at 10 µM: HEK293, 24 h; for ERβ in vitro activity (receptor activation relative to 10 nM E2): Table 2, previously published compounds, test compound 10 μM; for ERβ in vitro activity (receptor activation relative to 10 nM E2) / ERβ receptor activation relative to 10 nM E2 corresponding 100: 24 hours; for ERβ receptor activation relative to 10 nM E2 corresponding 100: Table 1, sample concentration 10 μM, mean of at least three independent transfections, SEM typically <15%
T2 sequence (Q92731 whole entry): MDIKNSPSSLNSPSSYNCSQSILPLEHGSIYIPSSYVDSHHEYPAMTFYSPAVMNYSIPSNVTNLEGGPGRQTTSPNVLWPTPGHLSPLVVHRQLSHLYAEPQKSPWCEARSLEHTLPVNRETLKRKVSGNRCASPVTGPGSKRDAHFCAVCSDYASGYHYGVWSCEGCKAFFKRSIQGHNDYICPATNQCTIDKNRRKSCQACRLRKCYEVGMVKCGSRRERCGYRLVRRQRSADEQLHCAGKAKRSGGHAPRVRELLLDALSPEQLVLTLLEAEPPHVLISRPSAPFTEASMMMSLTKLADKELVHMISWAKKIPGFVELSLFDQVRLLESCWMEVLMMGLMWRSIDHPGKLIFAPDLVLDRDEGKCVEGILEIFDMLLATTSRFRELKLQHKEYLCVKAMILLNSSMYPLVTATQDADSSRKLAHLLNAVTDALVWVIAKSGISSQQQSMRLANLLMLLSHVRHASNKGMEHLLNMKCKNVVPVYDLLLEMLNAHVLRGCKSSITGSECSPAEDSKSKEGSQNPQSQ
Description: as §1

ERα [3] = molecular target: T1, ERα; test: Competitive binding assay against [6,7-3H(N)]estradiol in transiently transfected COS-1 cells, ERα
Description: (§2) Relative binding affinities (RBA) were measured by a competitive assay against [6, 7-^3H(N)]estradiol (PerkinElmer) in transsiently transfected COS-1 cells. […] After 2 hours of incubation at 37° C. the medium was removed. The cells were removed from the wells to 150 μl of 1× phosphate buffered saline (PBS), transferred to Eppendorf tubes and centrifuged at 4° C. using 4000 g for 5 min, and then washed twice with 150 μl of PBS. The cell pellets were dissolved to 50 μl of 0.5M NaOH and incubated for 15 min at 56° C., after which the samples were transferred to liquid twinkle tubes and treated with 3 ml of OptiPhase HiSafe 3 twinkle solution (PerkinElmer).

ERβ [4] = molecular target: T2, ERβ; test: Competitive binding assay against [6,7-3H(N)]estradiol in transiently transfected COS-1 cells, ERβ
Description: as §2

[5] = read-out: ERβ receptor activation relative to 10 nM E2 corresponding 100, Table 1, sample concentration 10 μM, mean of at least three independent transfections, SEM typically <15%
[6] = read-out: ERβ in vitro activity (receptor activation relative to 10 nM E2), Table 2, previously published compounds, test compound 10 μM

Row | Structure (SMILES) | ERα receptor activation relative to 10 nM E2 corresponding 100 (ERα [1]) [%] | Emax at 10 µM (ERβ [2]; [5]) [%] | ERα in vitro activity (receptor activation relative to 10 nM E2) (ERα [1]) [%] | also measured
1 | O=C(CCCc1ccc(O)cc1)CC(O)c1ccccc1 (single isomer, unassigned) [Compound 34a, 1-Hydroxy-6-(4-hydroxy-phenyl)-1-phenyl-hexan-3-one] | 139.2 | 170 |  | IC50 (ERα [3]; ERα IC50 (median inhibition concentration), competition against labeled E2, COS-1 cells with pSG5-hERα, 2 hours at 37° C.): 0.9 nM; ERα RBA (relative binding affinity) (ERα [3]; in comparison to E2 = 100): 217.8%; IC50 (ERβ [4]; ERβ IC50 (median inhibition concentration), competition against labeled E2, COS-1 cells with pSG5-hERβ, 2 hours at 37° C.): 3.4 nM; ERβ RBA (relative binding affinity) (ERβ [4]; in comparison to E2 = 100): 57.65%
2 | CC(O)(CC(=O)CCCc1ccccc1)c1ccccc1 (stereo not shown) [Compound 60ab, 6-Hydroxy-1,6-diphenyl-heptan-4-one] |  |  | 83.3 | Emax at 10 µM (ERβ [2]; [6]): 15.1%
3 | O=C(CC(O)CCc1ccccc1)c1ccccc1 (single isomer, unassigned) [Compound 54b, 3-Hydroxy-1,5-diphenyl-pentan-1-one] |  |  | 30.2 | ERβ in vitro activity (receptor activation relative to 10 nM E2) (ERβ [2]): 7.3%
4 | O=C(CCCc1ccc(O)cc1)CC(O)c1cccc(O)c1 (single isomer, unassigned) [Compound 35b, 1-Hydroxy-1-(3-hydroxy-phenyl)-6-(4-hydroxy-phenyl)-hexan-3-one] | 49.3 |  |  | ERβ receptor activation relative to 10 nM E2 corresponding 100 (ERβ [2]): 43.8%
5 | O=C(CCc1ccc(O)cc1)CC(O)Cc1ccc(F)cc1 (stereo not shown) [Compound 33ab, 6-(4-Fluoro-phenyl)-5-hydroxy-1-(4-hydroxy-phenyl)-hexan-3-one] | 28.6 | 21.2 |  | 
6 | COc1ccccc1CC(=O)CC(O)CCc1cccc(F)c1 (single isomer, unassigned) [Compound 22b, 6-(3-Fluorophenyl)-4-hydroxy-1-(2-methoxyphenyl)-2-hexanone] | 5.6 | 2.9 |  | 
7 | COC(CCc1ccccc1)CC(=O)c1ccccc1 (stereo not shown) [Compound 62ab, 3-Methoxy-1,5-diphenyl-pentan-1-one] |  |  | 38.1 | Emax at 10 µM (ERβ [2]; [6]): 28.8%
8 | COC(CCc1ccccc1)CC(=O)Cc1ccccc1 (stereo not shown) [Compound 44ab, 4-Methoxy-1,6-diphenyl-hexan-2-one] | 12.0 | 0.2 |  | 
9 | O=C(CCc1ccccc1)CC(O)Cc1ccc(O)cc1 (stereo not shown) [Compound 25ab, 5-Hydroxy-6-(4-hydroxy-phenyl)-1-phenyl-hexan-3-one] | 51.4 | 6.1 |  | 
10 | O=C(CCCc1ccc(O)cc1)CC(O)c1cccc(O)c1 (single isomer, unassigned) [Compound 35a, 1-Hydroxy-1-(3-hydroxy-phenyl)-6-(4-hydroxy-phenyl)-hexan-3-one] | 87.4 |  |  | ERβ receptor activation relative to 10 nM E2 corresponding 100 (ERβ [2]): 107.8%
11 | O=C(CCCc1ccc(O)cc1)CC(O)Cc1ccc(O)cc1 (single isomer, unassigned) [Compound 42b, 2-Hydroxy-1,7-di-(4-hydroxy-phenyl)-heptan-4-one] | 2.8 |  |  | ERβ receptor activation relative to 10 nM E2 corresponding 100 (ERβ [2]): −1.6%
12 | COC(CCc1ccccc1)CC(=O)CCCc1ccccc1 (stereo not shown) [Compound 52ab, 3-Methoxy-1,8-diphenyl-octan-5-one] | 3.1 | -14.6 |  | 
13 | COc1ccccc1CC(=O)CC(O)CCc1cccc(F)c1 (single isomer, unassigned) [Compound 22a, 6-(3-Fluorophenyl)-4-hydroxy-1-(2-methoxyphenyl)-2-hexanone] | 8.4 |  |  | ERβ receptor activation relative to 10 nM E2 corresponding 100 (ERβ [2]): 3.4%
14 | O=C(CCc1ccccc1)CC(O)Cc1ccc2ccccc2c1 (single isomer, unassigned) [Compound 28b, 5-Hydroxy-6-naphthalen-2-yl-1-phenyl-hexan-3-one] | 20.1 |  |  | ERβ receptor activation relative to 10 nM E2 corresponding 100 (ERβ [2]): 20.1%
15 | O=C(CCc1ccccc1)CC(O)c1ccccc1 (single isomer, unassigned) [Compound 56a, 1-Hydroxy-1,5-diphenyl-pentan-3-one] |  |  | 78.8 | ERβ in vitro activity (receptor activation relative to 10 nM E2) (ERβ [2]): 20.5%
16 | O=C(CCc1ccccc1)CC(O)Cc1ccc(F)cc1 (stereo not shown) [Compound 26ab, 6-(4-Fluorophenyl)-5-hydroxy-1-phenyl-hexan-3-one] | 35.0 | 3.9 |  | 
17 | COc1ccc(CC(CC(=O)CCc2ccccc2)OC)cc1 (stereo not shown) [Compound 47ab, 5-Methoxy-6-(4-methoxyphenyl)-1-phenyl-hexan-3-one] | 28.5 | 4 |  | 
18 | O=C(CCCc1ccccc1)CC(O)CCc1ccccc1 (stereo not shown) [Compound 43ab, 6-Hydroxy-1,8-diphenyl-octan-4-one] | 2.2 | -7.1 |  | 
19 | O=C(CC(O)Cc1ccccc1)c1ccc(O)cc1 (stereo not shown) [Compound 18ab, 3-Hydroxy-1-(4-hydroxyphenyl)-4-phenyl-butan-1-one] | 22.6 | 58 |  | 
20 | O=C(CCc1ccccc1)CC(O)c1ccccc1 (single isomer, unassigned) [Compound 56b, 1-Hydroxy-1,5-diphenyl-pentan-3-one] |  |  | 25.3 | ERβ in vitro activity (receptor activation relative to 10 nM E2) (ERβ [2]): 2.8%
21 | O=C(CCCc1ccc(O)cc1)CC(O)Cc1ccc(O)cc1 (single isomer, unassigned) [Compound 42a, 2-Hydroxy-1,7-di-(4-hydroxy-phenyl)-heptan-4-one] | 15.4 |  |  | ERβ receptor activation relative to 10 nM E2 corresponding 100 (ERβ [2]): 1.8%
22 | COc1ccc(CC(O)CC(=O)CCc2ccccc2)cc1 (single isomer, unassigned) [Compound 24a, 5-Hydroxy-6-(4-methoxyphenyl)-1-phenyl-hexan-3-one] | 1.6 |  |  | ERβ receptor activation relative to 10 nM E2 corresponding 100 (ERβ [2]): −0.8%
23 | O=C(CC(O)Cc1ccccc1)c1ccccc1 (stereo not shown) [Compound 53ab, 3-Hydroxy-1,4-diphenyl-butan-1-one] |  |  | 5.3 | Emax at 10 µM (ERβ [2]; [6]): 16.9%
24 | O=C(CCCc1ccc(O)c(O)c1)CC(O)Cc1ccccc1 (stereo not shown) [Compound 41ab, 2-Hydroxy-7-(3,4-dihydroxy-phenyl)-1-phenyl-heptan-4-one] | −0.5 | -0.8 |  | 
25 | O=C(CCc1ccccc1)CC(O)Cc1cccc2ccccc12 (stereo not shown) [Compound 27ab, 5-Hydroxy-6-naphthalen-1-yl-1-phenyl-hexan-3-one] | 12.1 | 1.7 |  | 
26 | O=C(CCc1ccccc1O)CC(O)Cc1ccccc1 (stereo not shown) [Compound 30ab, 5-Hydroxy-1-(2-hydroxy-phenyl)-6-phenyl-hexan-3-one] | 45.2 | 5.1 |  | 
27 | O=C(CC(O)CCc1ccccc1)c1ccccc1 (single isomer, unassigned) [Compound 54a, 3-Hydroxy-1,5-diphenyl-pentan-1-one] |  |  | 3.0 | ERβ in vitro activity (receptor activation relative to 10 nM E2) (ERβ [2]): 1.1%
28 | COc1ccc(C(=O)CC(O)Cc2ccc(OCCN(C)C)cc2)cc1 (stereo not shown) [Compound 12ab, 4-[4-(2-Dimethylamino-ethoxy)phenyl]-3-hydroxy-1-(4-methoxy-phenyl)-butan-1-one] | 0 | -8.7 |  | 
29 | O=C(CCc1ccccc1)CC(O)Cc1ccccc1 (stereo not shown) [Compound 58ab, 5-Hydroxy-1,6-diphenyl-hexan-3-one] |  |  | 12.8 | Emax at 10 µM (ERβ [2]; [6]): 0.4%
30 | O=C(Cc1ccccc1)CC(O)c1ccccc1 (stereo not shown) [Compound 55ab, 4-Hydroxy-1,4-diphenyl-butan-2-one] |  |  | 0.8 | Emax at 10 µM (ERβ [2]; [6]): 1.6%
